Reference: PubChem BioAssay (NCI)
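Each compound was tested at five concentrations against cells in 96-well plates for 48 hours. TGI denotes the concentration required for complete inhibition of growth.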 Where a SMILES comes first, the peptide text is derived from it. The star is where a group is joined. Boc = CC(C)(C)OC(=O)*

Legend:
Assay in all cases: inhibition of tumour cell growth, NCI panel, 48 h
ACHN renal = test system: ACHN renal
SN12C renal = test system: SN12C renal
HOP-62 NSCLC = test system: HOP-62 NSCLC
SW-620 colon = test system: SW-620 colon
SF-295 CNS = test system: SF-295 CNS
NCI-H460 lung = test system: NCI-H460 lung
PC-3 prostate = test system: PC-3 prostate
MALME-3M melanoma = test system: MALME-3M melanoma
UACC-257 melanoma = test system: UACC-257 melanoma
LOX IMVI melanoma = test system: LOX IMVI melanoma

Compound | TGI (ACHN renal) [µM] | TGI (SN12C renal) [µM] | TGI (HOP-62 NSCLC) [µM] | TGI (SW-620 colon) [µM] | TGI (SF-295 CNS) [µM] | TGI (NCI-H460 lung) [µM] | TGI (PC-3 prostate) [µM] | TGI (MALME-3M melanoma) [µM] | TGI (UACC-257 melanoma) [µM] | TGI (LOX IMVI melanoma) [µM]
Nc1nc(Cl)c(N)c(NCC2(CO)CC(OCc3ccccc3)C2)n1 (stereo unspecified) | > 100 | > 100 | > 100 | > 100 | > 100 | > 100 | > 100 | > 100 | > 100 | > 100
COC(=O)CCC(=O)NC1=C(Nc2ccc(OC)cc2)C(=O)c2ccccc2C1=O | 54.5 | 27.3 | 33.2 | 29.7 | 25.8 | 21.1 | > 92.2 | 4.69 | 16.1 | 16.1
[N-]=[N+]=C1N=CN=C1c1ncn[nH]1 | > 100 | 93.9 | > 100 | > 100 | > 100 |  | > 100 | > 100 | > 100 | 40
COc1ccc2nc3c([N+](=O)[O-])ccc4c3c(c2c1)NCCN4CCO | 2.25 | 2.34 | 2.28 | 3.1 | 1.71 | 1.18 | 1.56 | 1.45 | 1.5 | 0.792
COC(=O)C1Cc2c(OC)ccc(OC)c2CC(C(=O)OC)C1=O (stereo unspecified) | > 100 | > 100 | > 100 | > 100 | > 100 | > 100 | > 100 | > 100 | > 100 | 
N#CCc1n[nH]c(Cc2ccccc2)n1 | > 100 | > 100 | > 100 | > 100 | > 100 | > 100 | > 100 | > 100 | > 100 | > 100
CC1(C)N=C(C(N)=O)c2ncn(N)c2N1 | > 100 | > 100 | > 100 | > 100 | > 100 | > 100 | > 100 | > 100 | > 100 | > 100
O=C1NC(SSC2=NNC3(C(=O)N2)c2ccccc2-c2ccccc23)=NNC12c1ccccc1-c1ccccc12 | > 10 | > 10 | > 10 | > 10 | > 10 | > 10 | > 10 | > 10 | > 10 | > 10
COC(=O)C(Cc1c[nH]c2ccccc12)NC(=O)C(Cc1c[nH]c2ccccc12)NC(=O)C(Cc1c[nH]c2ccccc12)NC(=O)C(Cc1c[nH]c2ccccc12)NC(=O)C(Cc1c[nH]c2ccccc12)NC(=O)C(Cc1c[nH]c2ccccc12)NC(=O)OC(C)(C)C (stereo unspecified) (Boc-WWWWWW-OMe; configuration not given here) | > 100 | > 100 | > 100 | > 100 |  | > 100 | > 100 | > 100 | > 100 | > 100
O=C(c1ccco1)N1CCCN(C(=O)c2ccco2)C1=S | > 100 | > 100 | > 100 | > 100 |  | > 100 | > 100 | > 100 | > 100 | > 100
O=C(/C=C/c1ccc(O)c(O)c1)OCCCc1ccccc1 | 21.2 | 25.3 | 26.6 | 32 | 38.9 | 55.6 | 24.4 | 25.4 | 63.4 | 27.1
O=C(O)c1cc2ccccc2c(N=Nc2ccc(S(=O)(=O)Nc3nccs3)cc2)c1O | > 100 | > 100 | > 100 | > 100 | > 100 | > 100 | > 100 | > 100 | > 100 | 
COC(=O)/C(=C\Nc1cccc(C)n1)S(=O)(=O)c1ccc(C)cc1 | > 100 | > 100 | > 100 | > 100 | > 100 | > 100 | > 100 | > 100 | > 100 | > 100
CCC(CON(C)c1ccccc1)(SC)SC | > 100 | > 100 | > 100 | > 100 | > 100 | > 100 | > 100 | > 100 | > 100 | > 100
CCCSc1ccc2[nH]c(N3C(=O)/C(=C/c4ccco4)N=C3c3ccccc3)cc2c1 | > 50 | > 50 | > 50 | > 50 |  | > 50 | > 50 | > 50 | > 50 | > 50
COc1ccc2c(CCN)c(C(=O)O)[nH]c2c1 | > 100 | > 100 | > 100 | > 100 | > 100 | > 100 | > 100 | > 100 | > 100 | > 100
CCCCc1ccc(Nc2nc3c(ncn3C3CC(O)C(CN=[N+]=[N-])O3)c(=O)[nH]2)cc1 (stereo unspecified) | > 100 | > 100 | > 100 | > 100 | > 100 | > 100 | > 100 | > 100 | > 100 | > 100
CC(O)c1cc2c(s1)C(=O)c1sccc1C2=O (stereo unspecified) |  | 0.192 | 0.406 |  | 0.191 | 0.268 | 1.43 | 0.0486 | 0.0358 | 0.29
CCCCCCCCOC1C(O)C(O)C(O)C(O)C12CO2 (stereo unspecified) | > 100 | > 100 | > 100 | > 100 | > 100 | > 100 | > 100 | > 100 | > 100 | > 100
COC(=O)[C@@H]1[C@@H](c2cccc(Cl)c2)[C@H](C(=O)OC)C2(C[C@@]1(C)O)NCCS2 (stereo partly specified) | > 100 | > 100 | > 100 | > 100 | > 100 | > 100 | > 100 | > 100 | > 100 | > 100
COC(=O)/C=C\n1c(C)cc(=O)[nH]c1=O | > 100 | > 100 | > 100 | > 100 | > 100 | > 100 | > 100 | > 100 | > 100 | 
